Experimental data published in patent US10674727B2, “Substituted oxadiazoles for combating phytopathogenic fungi” (priority 2015, dated 2020).

Test system: Phakopsora pachyrhizi
Test: Protective control of soy bean rust on soy beans (glass house trial)
Type: in vivo
Conditions: 16 ppm active compound, sprayed 2 days before inoculation, soy bean seedlings; untreated plants 90%
Method: The spray solutions were prepared in several steps: The stock solution were prepared: a mixture of acetone and/or dimethylsulfoxide and the wetting agent/emulsifier Wettol, which is based on ethoxylated alkylphenoles, in a relation (volume) solvent-emulsifier of 99 to 1 was added to 25 mg of the compound to give a total of 5 ml. Water was then added to total volume of 100 ml. This stock solution was diluted with the described solvent-emulsifier-water mixture to the given concentration.
II.2) Protective control of soy bean rust on soy beans caused by Phakopsora pachyrhizi Leaves of pot-grown soy bean seedlings were sprayed to run-off with an aqueous suspension, containing the concentration of active ingredient or their mixture as described below. The plants were allowed to air-dry. The trial plants were cultivated for 2 day in a greenhouse chamber at 23 to 27° C. and a relative humidity between 60 and 80%. Then the plants were inoculated with spores of Phakopsora pachyrhizi. To ensure the success the artificial inoculation, the plants were transferred to a humid chamber with a relative humidity of about 95% and 20 to 24° C. for 24 h. The trial plants were cultivated for fourteen days in a greenhouse chamber at 23 to 27° C. and a relative humidity between 60 and 80%. The extent of fungal attack on the leaves was visually assessed as % diseased leaf area.

Structure (SMILES)	diseased leaf area [%]
CCN(Cc1ccc(-c2noc(C(F)(F)F)n2)cc1)C(=O)C(C)C [Ex-24]	0
CCCC(=O)N(CC)Cc1ccc(-c2noc(C(F)(F)F)n2)cc1 [Ex-25]	0
CCC(=O)N(CC)Cc1ccc(-c2noc(C(F)(F)F)n2)cc1 [Ex-26]	0
CCN(Cc1ccc(-c2noc(C(F)(F)F)n2)cc1)C(=O)C(C)(C)C [Ex-27]	0

Same assay, conditions: 32 ppm active compound, sprayed 2 days before inoculation, soy bean seedlings; untreated plants 90%

Structure (SMILES)	diseased leaf area [%]
CNC(c1ccc(-c2noc(C(F)(F)F)n2)cc1)C(F)(F)F (stereo not shown) [Ex-1]	0
C=CCN(Cc1ccc(-c2noc(C(F)(F)F)n2)cc1)C(C)=O [Ex-4]	0
C=CCN(Cc1ccc(-c2noc(C(F)(F)F)n2)cc1)C(=O)CC [Ex-5]	0
C=CCN(Cc1ccc(-c2noc(C(F)(F)F)n2)cc1)C(=O)C(C)(C)C [Ex-6]	0
CCC(=O)N(C)Cc1ccc(-c2noc(C(F)(F)F)n2)cc1 [Ex-7]	0
CN(Cc1ccc(-c2noc(C(F)(F)F)n2)cc1)C(=O)C(C)(C)C [Ex-8]	0
CCC(=O)N(Cc1ccc(-c2noc(C(F)(F)F)n2)cc1)C(C)C [Ex-9]	0
CC(C)N(Cc1ccc(-c2noc(C(F)(F)F)n2)cc1)C(=O)C(C)(C)C [Ex-10]	0
CCC(CC)C(=O)N(C)Cc1ccc(-c2noc(C(F)(F)F)n2)cc1 [Ex-11]	0
CCCC(=O)N(C)Cc1ccc(-c2noc(C(F)(F)F)n2)cc1 [Ex-12]	0
CC(C)C(=O)N(C)Cc1ccc(-c2noc(C(F)(F)F)n2)cc1 [Ex-13, N,2-dimethyl-N[[4-[5-(trifluoromethyl)-1,2,4-oxadiazol-3-yl]phenyl]methyl]propanamide]	0
CCC(C)C(=O)N(C)Cc1ccc(-c2noc(C(F)(F)F)n2)cc1 (stereo not shown) [Ex-14]	0
CC(=O)NCc1ccc(-c2noc(C(F)(F)F)n2)cc1 [Ex-15]	0
CC(=O)N(C)C(C)c1ccc(-c2noc(C(F)(F)F)n2)cc1 (stereo not shown) [Ex-16, N-methyl-N-[1-[4-[5-(trifluoromethyl)-1,2,4-oxadiazol-3-yl]phenyl]ethyl]acetamide]	0
CC(c1ccc(-c2noc(C(F)(F)F)n2)cc1)N(C)C(=O)C(C)(C)C (stereo not shown) [Ex-17]	0
CCC(=O)N(C)C(C)c1ccc(-c2noc(C(F)(F)F)n2)cc1 (stereo not shown) [Ex-18]	0
CCCC(=O)N(C)C(C)c1ccc(-c2noc(C(F)(F)F)n2)cc1 (stereo not shown) [Ex-19]	0
CCC(CC)C(=O)N(C)C(C)c1ccc(-c2noc(C(F)(F)F)n2)cc1 (stereo not shown) [Ex-20]	0
CC(C)C(=O)N(C)C(C)c1ccc(-c2noc(C(F)(F)F)n2)cc1 (stereo not shown) [Ex-21]	0
CCC(C)C(=O)N(C)C(C)c1ccc(-c2noc(C(F)(F)F)n2)cc1 (stereo not shown) [Ex-22]	0
CC(=O)NC(c1ccc(-c2noc(C(F)(F)F)n2)cc1)C(F)(F)F (stereo not shown) [Ex-23]	0
CCC(C)C(=O)N(CC)Cc1ccc(-c2noc(C(F)(F)F)n2)cc1 (stereo not shown) [Ex-28]	0
CC(C)CC1CCN(Cc2ccc(-c3noc(C(F)(F)F)n3)cc2)C1=O (stereo not shown) [Ex-29]	0
O=C1CCCN1Cc1ccc(-c2noc(C(F)(F)F)n2)cc1 [Ex-30, 1-[[4-[5-(trifluoromethyl)-1,2,4-oxadiazol-3-yl]phenyl]methyl] pyrrolidin-2-one]	0
CC1(C)CC(=O)N(Cc2ccc(-c3noc(C(F)(F)F)n3)cc2)C1 [Ex-31]	0
CC1CCN(Cc2ccc(-c3noc(C(F)(F)F)n3)cc2)C1=O (stereo not shown) [Ex-32]	0
CC1(C)CCC(=O)N(Cc2ccc(-c3noc(C(F)(F)F)n3)cc2)C1 [Ex-33]	0
